Data taken from US20250340532A1, “HETEROCYCLIC COMPOUND CCR4 INHIBITOR AND USER THEREOF” (Xizang Haisco Pharmaceutical Co., Ltd., priority 2022, published 2025).

Target: T1, CCR4 (Homo sapiens, UniProt P51679)
T1 construct: expressed in transfected cells; host or cells: HEK293
T1 sequence (P51679 1-360): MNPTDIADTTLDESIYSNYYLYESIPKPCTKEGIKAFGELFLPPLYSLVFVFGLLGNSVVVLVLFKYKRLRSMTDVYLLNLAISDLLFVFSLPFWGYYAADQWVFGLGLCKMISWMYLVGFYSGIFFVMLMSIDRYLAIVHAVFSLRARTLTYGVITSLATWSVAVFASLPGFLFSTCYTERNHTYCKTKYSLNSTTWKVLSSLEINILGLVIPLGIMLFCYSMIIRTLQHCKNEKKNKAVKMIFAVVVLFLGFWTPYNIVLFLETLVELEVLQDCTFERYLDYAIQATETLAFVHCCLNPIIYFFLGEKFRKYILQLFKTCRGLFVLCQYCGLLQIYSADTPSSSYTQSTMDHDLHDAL
Assay: Calcium flow detected by FLIPR
Assay type: cell-based
Settings: CCR4/HEK293 cells, agonist CCL17, Fluo-4 calcium signal
Procedure: CCR4/HEK293 cells were added to a 384-well cell culture plate (Greiner #781946) at a rate of 20 μL/well (20,000 cells/well) and incubated overnight in a 37° C., 5% CO2 incubator (Incubator, Thermo). On the second day, the 384-well cell culture plate was taken out of the incubator and the culture medium was removed; Then, 20 μL of detection buffer and 20 μL of 2X Fluo-4 Direct™ (Invitrogen, Cat #F10471) were added. Then, compounds were added at 10 μL/well (compounds were subjected to 4-fold serial dilution, and the highest detection concentration was 10 μM), and the cells were incubated in a 37° C., 5% CO2 incubator for 50 min, and then incubated at room temperature for 10 min. The 384-well culture plate was placed in FLIPR ([…]), 10 μL of 6X agonist CCL17 was added by using an automatic loader, and the fluorescence signal was read immediately. The mean and standard error (Mean±SEM) were statistically analyzed using Graphpad Prism software, and the IC50 value was calculated.
The experimental results are shown in Table 3, where A represents IC50<100 nm; B represents 100 nM≤IC50<500 nM, and C represents 500 nM≤IC50.

Row | Structure (SMILES) | IC50
1 | C#Cc1ccc(C(C)Nc2nc(N3CC([C@H]4CCCN(CCO)C4)C3)nc(C)c2Cl)c(Cl)c1 (stereo partly drawn) [Compound 38] | 100 to 500 nM
2 | C[C@@H](Nc1nc(N2CC([C@H]3CCCN([C@H]4C[C@](C)(C(=O)O)C4)C3)C2)c2ccn(C)c2n1)c1ccc(Cl)cc1Cl [Compound 43] | 100 to 500 nM
3 | C[C@@H](Nc1nc(N2CC([C@H]3CCCN([C@H]4C[C@](C)(C(=O)O)C4)C3)C2)c2c(ccn2C)n1)c1ccc(Cl)cc1Cl [Compound 44] | 100 to 500 nM
4 | C[C@@H](Nc1nc2c(c(N3CC([C@H]4CCCN([C@H]5C[C@](C)(C(=O)O)C5)C4)C3)n1)COC2)c1ccc(Cl)cc1Cl [Compound 45] | 100 to 500 nM
5 | C[C@@H](Nc1cc(N2CC([C@H]3CCCN([C@H]4C[C@](C)(C(=O)O)C4)C3)C2)nc(C(F)(F)F)n1)c1ccc(Cl)cc1Cl [Compound 52] | 100 to 500 nM
6 | Cc1nc(N[C@H](C)c2ccc(Cl)cc2Cl)nc(N2CC([C@H]3CCCN([C@H]4C[C@](C)(C(=O)O)C4)C3)C2)c1Cl [Compound 56] | 100 to 500 nM
7 | Cc1nc(N2CC(C3CN(C4CC(C)(C#N)C4)CCO3)C2)nc(N[C@H](C)c2ccc(Cl)cc2Cl)c1Cl (stereo partly drawn) [Compound 70] | 100 to 500 nM

Continued, values first:

Row | IC50 | Structure (SMILES)
8 | < 100 nM | Cc1nc(N2CC(C3CN(CC(C)(C)O)CCO3)C2)nc(N[C@H](C)c2ccc(Cl)cc2Cl)c1Cl (stereo partly drawn) [Compound 35]
9 | 100 to 500 nM | Cc1nc(N2CC([C@H]3CCCN([C@H]4C[C@](C)(C(=O)O)C4)C3)C2)nc2c1CCCN2C(C)c1ccc(Cl)cc1Cl (stereo partly drawn) [Compound 36]
10 | < 100 nM | Cc1cc(N2CC([C@H]3CCCN([C@H]4C[C@](C)(C(=O)O)C4)C3)C2)cc(N[C@H](C)c2ccc(Cl)cc2Cl)n1 [Compound 39]
11 | < 100 nM | C[C@@H](Nc1nc(N2CC([C@H]3CCCN([C@H]4C[C@](C)(C(=O)O)C4)C3)C2)c2ccccc2n1)c1ccc(Cl)cc1Cl [Compound 40]
12 | < 100 nM | C[C@@H](Nc1nc(N2CC([C@H]3CCCN([C@H]4C[C@](C)(C(=O)O)C4)C3)C2)c2occc2n1)c1ccc(Cl)cc1Cl [Compound 51]
13 | < 100 nM | C[C@@H](Nc1cc(N2CC([C@H]3CCCN([C@H]4C[C@](C)(C(=O)O)C4)C3)C2)nc2nccn12)c1ccc(Cl)cc1Cl [Compound 55]
14 | < 100 nM | Cc1nc(N2CC(F)(C3CN(CCC(=O)O)CCO3)C2)nc(N[C@H](C)c2ccc(Cl)cc2Cl)c1Cl (stereo partly drawn) [Compound 88]
15 | < 100 nM | C[C@@H](Nc1cc(N2CCC(C3CN(CCO)CCO3)CC2)nc2ccnn12)c1ccc(Cl)cc1Cl (stereo partly drawn) [Compound 112]
